Paper PMC3433162 (Analytical chemistry, 2012)

What was measured:
[1] = target: bovine carbonic anhydrase (BCA) (Bos taurus, UniProt P00921); assay: biochemical; format: binding
[2] = target: carbonic anhydrase; conditions: read-out: Kd or Ki; cited from earlier work

bovine carbonic anhydrase (BCA), sequence (P00921 whole entry): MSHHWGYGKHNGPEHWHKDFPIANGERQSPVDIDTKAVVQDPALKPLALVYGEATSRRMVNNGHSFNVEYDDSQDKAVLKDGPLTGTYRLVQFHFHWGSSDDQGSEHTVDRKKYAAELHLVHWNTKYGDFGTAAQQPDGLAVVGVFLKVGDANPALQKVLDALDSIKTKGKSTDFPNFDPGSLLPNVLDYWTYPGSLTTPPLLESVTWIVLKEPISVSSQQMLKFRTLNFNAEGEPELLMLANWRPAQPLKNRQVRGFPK

Compound	Kd [1]	Kd [2]
Cc1ccc(S(N)(=O)=O)cc1 [4-methylbenzene sulfonamide]	290 nM	
methane sulfonamide		70 to 320 µM
